In patent US11426393B2, “Prolyl hydroxylase inhibitors and methods of use” (Akebia Therapeutics, Inc., priority 2006, dated 2022):
pEC50, pIC50: −log10 of the molar value.

Experiments:
VEGF = VEGF ELISA assay; assay type: cell-based; settings: Homo sapiens; HEK293 cells; % of DFO stimulation
Description: HEK293 cells are seeded in 96-well poly-lysine coated plates at 20,000 ceils per well in DMEM (10% FBS, 1% NEAA, 0.1% glutamine). Following overnight incubation, the cells are washed with 100 uL of Opti-MEM (Gibco, Carlsbad, Calif.) to remove serum. Compound in DMSO is serially diluted (beginning with 100 μM) in Qpti-MEM and added to the cells. The conditioned media is analyzed for VEGF with a Quantikine human VEGF immunoassay kit (R&D Systems, Minneapolis, Minn.). Optical density measurements at 450 nm are recorded using the Spectra Max 250 (Molecular Devices, Sunnyvale, Calif.). Data defined as % of DFO stimulation is used to calculate EC50 values with GraphPad Prism 4 software (San Diego, Calif.).

EPO = assay: Mouse serum EPO assay (mouse ischemic hindlimb study); assay type: in vivo
Description: (§1) Mouse Ischemic Hindlimb Study
(§2) All animal work is conducted in accordance with the Guide for the Care and Use of Laboratory Animals (National Academy of Sciences; Copyright©1996) and the Institutional Animal Care and Use Committee guidelines at Procter and Gamble Pharmaceuticals. We studied 9-10 week old male C57Bl/6 mice from Charles River Laboratory (Portage, Mich.). The mice are orally dosed with vehicle (aqueous carbonate buffer, 50 mM; pH 9.0) or compound 1 in vehicle at 50 mg/kg or 100 mg/kg. The animals are dosed three times: day 1 at 8 am and 5 pm, day 2 at […]. One hour after the first dose, unilateral arterial ligation is performed under anesthesia using isoflurane. The femoral artery is ligated proximal to the origin of the popliteal artery. The contralateral limb underwent a sham surgical procedure. Ligation is performed in an alternating fashion between right and left hindlimbs. Two hours after 8 am dosing on day 2, we obtained blood by ventricular stick while the mice are anesthetized with isoflurane. Serum samples for EPO analysis are obtained using gel clot serum separation tubes. Heart, liver, and gastrocnemius muscles are harvested, snap-frozen in liquid nitrogen, and stored in −80° C. until use.
The mouse serum EPO is detected using Mouse Quantikine Erythropoietin ELISA kit from R&D Systems according to manufacturer's ins tractions.

human EGLN-3 = human EGLN-3 (Homo sapiens (Human), UniProt Q9H6Z9); assay: EGLN-3 activity assay (MALDI-TOF MS); assay type: biochemical; settings: His-MBP-TVMV-EGLN-3 fusion; HIF-1α peptide 556-574 as substrate; read-out: EGLIN3 IC50
Description: (§3) Data defined as percent conversion of substrate to product is analyzed in GraphPad Prism 4 to calculate IC50 values.

human EGLN-1 = human EGLN-1 (Homo sapiens (Human), UniProt Q9GZT9); assay: EGLN-1 activity assay (MALDI-TOF MS); assay type: biochemical; settings: read-out: EGLIN1 IC50
Description: as §3

HIF-1α = assay: Mouse tissue HIF Western blot analysis; assay type: in vivo; settings: mouse liver, FIG. 1
Description: as §1, §2
Mouse Tissue HIF Western Blot Analysis
Tissues from mice stored at −80° C. are powdered with mortar and pestle chilled with liquid nitrogen. […]

Chain of human EGLN-3 (Q9H6Z9 whole entry, the tested form may be a part): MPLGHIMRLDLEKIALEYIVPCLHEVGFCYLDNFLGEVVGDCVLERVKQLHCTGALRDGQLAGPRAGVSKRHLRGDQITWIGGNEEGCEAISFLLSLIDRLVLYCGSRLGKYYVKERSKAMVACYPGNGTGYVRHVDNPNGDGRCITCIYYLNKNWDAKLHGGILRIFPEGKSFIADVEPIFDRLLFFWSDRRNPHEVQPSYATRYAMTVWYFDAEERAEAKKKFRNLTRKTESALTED
Chain of human EGLN-1 (Q9GZT9 179-426): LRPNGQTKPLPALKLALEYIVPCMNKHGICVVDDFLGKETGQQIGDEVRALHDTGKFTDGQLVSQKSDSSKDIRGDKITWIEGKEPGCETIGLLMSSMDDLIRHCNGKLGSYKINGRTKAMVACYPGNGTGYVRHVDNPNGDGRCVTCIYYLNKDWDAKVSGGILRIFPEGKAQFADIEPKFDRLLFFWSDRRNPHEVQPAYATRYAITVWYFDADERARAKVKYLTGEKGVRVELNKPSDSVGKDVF

Structure (SMILES) | pEC50 (VEGF) | also measured
Cc1ccc(Cl)cc1-c1cnc(C(=O)NCC(=O)O)c(O)c1 | 5.48 | –
Cc1ccc(-c2ccc(C(=O)NCC(=O)O)c(O)c2)cc1 | < 4.00 | –
COC(=O)CNC(=O)c1ncc(-c2ccc(C)cc2)cc1O | 5.09 | –
O=C(O)CNC(=O)c1ncc(-c2cccc(C(=O)N3CCCC3)c2)cc1O | < 4.00 | –
COC(=O)CNC(=O)c1ncc(-c2ccc(Cl)cc2)cc1O | < 4.00 | –
CC(C)Oc1ccc(-c2cnc(C(=O)NCC(=O)O)c(O)c2)cc1 | < 4.00 | –
COC(=O)CNC(=O)c1ncc(-c2cccc(C(=O)N3CCCC3)c2)cc1O | < 4.00 | –
COC(=O)CNC(=O)c1ncc(-c2ccccc2Cl)cc1O | 5.11 | –
N#Cc1cccc(-c2cnc(C(=O)NCC(=O)O)c(O)c2)c1 | < 4.00 | –
O=C(O)CNC(=O)c1ncc(-c2cccc(-c3nn[nH]n3)c2)cc1O | < 4.00 | –
COC(=O)CNC(=O)c1ncc(-c2cccc(Cl)c2)cc1O | 5.00 | –
CNC(=O)CNC(=O)c1ncc(-c2cccc(Cl)c2)cc1O | 5.85 | EPO response (EPO; in vivo response, mouse serum EPO): yes; pIC50 (human EGLN-3): 5.89; pIC50 (human EGLN-1): 5.92
CC(C)c1ccc(-c2cnc(C(=O)NCC(=O)O)c(O)c2)cc1 | 4.82 | –
O=C(O)CNC(=O)c1ncc(-c2cccc(Cl)c2)cc1O [{[5-(3-Chlorophenyl)-3-hydroxypyridine-2-carbonyl]amino}-acetic acid] | – | erythropoietin level versus vehicle (EPO; mouse serum after oral dosing, FIG. 2): elevated versus vehicle; stabilization of HIF-1α (immunoblot analysis of nuclear extracts) (HIF-1α): stabilization of HIF-1α
O=C(O)CNC(=O)c1ncc(-c2cccc(Cl)c2)cc1O [drawing 122] | 5.12 | –
COC(=O)CNC(=O)c1ncc(-c2cccc(C(N)=O)c2)cc1O | 4.30 | –
